Literature values, collected in patent US20090215102A1, “Method to Assess Breast Cancer Risk” (priority 2005, published 2009).
Counter-ions that a name gives are not always drawn. Like-named read-outs stand apart in the source and are kept apart here.

What was measured:
[1] = in vivo
[2] = system: rat mammary carcinoma induced by dimethylbenzanthracene (DMBA)
[3] = system: estrogen receptors; details: preclinical data
[4] = system: breast cancer

CC/C(=C(\c1ccccc1)c1ccc(OCCNC)cc1)c1ccccc1 [N-desmethyl tamoxifen]
half-life of metabolite suggested by time to steady state [1]: ~14 days

CC/C(=C(\c1ccccc1)c1ccc(OCCN(C)C)cc1)c1ccccc1 [Tamoxifen citrate]
antiestrogenic properties in animal test systems ([2]; animal test systems): potent antieskogenic properties

O=C(c1ccc(OCCN2CCCCC2)cc1)c1c(-c2ccc(O)cc2)sc2cc(O)ccc12 [Raloxifene]
clearance following chronic dosing: 40 to 60 L/kg per hour
action in uterine and breast tissues [3]: estrogen antagonist

CC/C(=C(\c1ccccc1)c1ccc(OCCN(C)C)cc1)c1ccccc1 [Tamoxifen]
induction of rat mammary carcinoma induced by DMBA ([2]; rat): inhibits the induction
associated toxicity ([4]; particularly women aged 50 or older): increased risk of endometrial cancer, stroke, pulmonary emboli, and deep vein thrombosis
breast cancer risk reduction ([4]; women with a history of LCIS): 56%
breast cancer risk reduction ([4]; women with a history of atypical ductal hyperplasia): 86%
